Laboratory results as given in ChEMBL document CHEMBL1128430, “1,1-Bisphosphonate squalene synthase inhibitors: interplay between the isoprenoid subunit and the diphosphate surrogate” (J Med Chem, 1995).
Calls of active or inactive are those of the source. The rule behind the calls is not given here.

Assays:
Squalene synthase = biological target: T1, Squalene synthase (Rattus norvegicus, UniProt Q02769); experiment: Inhibition rat liver microsomal squalene synthase
T1 sequence (Q02769 whole entry): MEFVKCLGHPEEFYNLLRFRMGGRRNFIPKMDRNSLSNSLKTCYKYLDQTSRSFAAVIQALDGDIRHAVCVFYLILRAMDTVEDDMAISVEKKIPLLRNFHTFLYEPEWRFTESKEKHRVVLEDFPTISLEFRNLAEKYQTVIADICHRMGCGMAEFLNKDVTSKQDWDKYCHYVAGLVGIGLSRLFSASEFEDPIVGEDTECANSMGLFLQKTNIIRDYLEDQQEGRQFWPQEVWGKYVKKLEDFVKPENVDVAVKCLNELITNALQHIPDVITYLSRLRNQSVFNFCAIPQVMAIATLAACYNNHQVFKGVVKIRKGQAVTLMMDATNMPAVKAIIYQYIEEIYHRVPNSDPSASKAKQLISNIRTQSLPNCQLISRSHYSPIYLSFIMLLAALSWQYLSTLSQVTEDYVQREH

[1] = biological target: T2, Squalene synthase (Rattus norvegicus) (UniProt Q02769); experiment: Effective dose to inhibit rat liver microsomal Squalene Synthase was determined by intravenous administration
T2 sequence (whole entry): T1 sequence (Q02769 whole entry)

[2] = biological target: T2, Squalene synthase (Rattus norvegicus); experiment: Effective dose to inhibit rat liver microsomal Squalene Synthase was determined by peroral administration at 15 mg/kg dose; assay type: organism-based; design: dose 15 mg/kg
[3] = biological target: T2, Squalene synthase (Rattus norvegicus); details: 30 mg/kg
[4] = biological target: T2, Squalene synthase (Rattus norvegicus); experiment: Effective dose to inhibit rat liver microsomal Squalene Synthase was determined by peroral administration at a dose of 30 mg/kg; In active; assay type: organism-based; design: dose 30 mg/kg
[5] = biological target: T2, Squalene synthase (Rattus norvegicus); experiment: Effective dose to inhibit rat liver microsomal Squalene synthase was determined by peroral administration at a dose of 15 mg/kg; inactive; assay type: organism-based; design: dose 15 mg/kg
[6] = biological target: T2, Squalene synthase (Rattus norvegicus); experiment: Effective dose to inhibit rat liver microsomal Squalene Synthase was determined by peroral administration

SMILES | IC50 (Squalene synthase) [nM] | other results
CP(=O)(O)C(CCCc1ccc(-c2ccccc2)cc1)P(=O)(O)O (configuration not stated) | 490 | –
CC(C)=CCC/C(C)=C/CCCCC(P(C)(=O)O)P(=O)(O)O (configuration not stated) | 605 | –
CC(C)=CCC/C(C)=C/CCCCCCC(P(C)(=O)O)P(=O)(O)O (configuration not stated) | 374 | –
COCP(=O)(O)C(CCC/C=C(\C)CC/C=C(\C)CCC=C(C)C)P(=O)(O)O (configuration not stated) | 6.5 | –
CC(C)=CCC/C(C)=C/CCCC([PH](=O)O)P(=O)(O)O (configuration not stated) | 4 | –
CC(C)=CCC/C(C)=C/CC/C(C)=C/CCCC(P(C)(=O)O)P(=O)(O)O (configuration not stated) | 12.9 | –
CC(C)=CCC/C(C)=C/CCC(P(=O)(O)O)P(=O)(O)O | 77.7 | –
CC(C)=CCC/C(C)=C/CCCC(P(=O)(O)O)P(=O)(O)CO (configuration not stated) | 38.7 | –
COCP(=O)(O)C(CCCc1ccc(-c2ccccc2)cc1)P(=O)(O)O (configuration not stated) | 14.8 | –
CC(C)=CCC/C(C)=C/CC/C(C)=C/CCCCCCC(P(=O)(O)O)P(=O)(O)O | 11.8 | ED50 [1]: 0.13 mg/kg; inhibition [2]: 26%
CC(C)=CCC/C(C)=C/CCCCCCC(P(=O)(O)O)P(=O)(O)O | 17.6 | inhibition [3]: 25%
CC(C)=CCC/C(C)=C/CCCC(C(=O)O)P(=O)(O)O (configuration not stated) | 1650 | –
CC(C)=CCC/C(C)=C/CC/C(C)=C/CCCC(P(=O)(O)O)P(=O)(O)CO (configuration not stated) | 4.7 | –
CC(C)=CCC/C(C)=C/CCCCCC(P(C)(=O)O)P(=O)(O)O (configuration not stated) | 30.7 | –
O=C(O)C(CCCc1ccc(-c2ccccc2)cc1)P(=O)(O)O (configuration not stated) | 2200 | –
CC(C)=CCC/C(C)=C/CCCCCC(P(=O)(O)O)P(=O)(O)O | 2.5 | ED50 [1]: 0.04 mg/kg; ED50 [6]: 1.1 mg/kg
CC(C)=CCC/C(C)=C/CC/C(C)=C/CC(P(C)(=O)O)P(=O)(O)O (configuration not stated) | 106 | –
CC(C)=CCC/C(C)=C/CC/C(C)=C/CCCC(C(=O)O)P(=O)(O)O (configuration not stated) | 880 | –
CC(C)=CCC/C(C)=C/CCCCC(P(=O)(O)O)P(=O)(O)O | 2.6 | –
CC(C)=CCC/C(C)=C/CC/C(C)=C/CC(P(=O)(O)O)P(=O)(O)O | 32.4 | –

Second part, led by results:

IC50 (Squalene synthase) [nM] | SMILES | other results
13.1 | COCP(=O)(O)C(CCC/C=C(\C)CCC=C(C)C)P(=O)(O)O (configuration not stated) | –
6600 | CC(C)=CCCCC(P(=O)(O)O)P(=O)(O)O | –
8600 | CC(C)=CCC/C(C)=C/CC(P(C)(=O)O)P(=O)(O)O (configuration not stated) | –
6.5 | CC(C)=CCC/C(C)=C/CC/C(C)=C/CCCCC(P(C)(=O)O)P(=O)(O)O (configuration not stated) | –
4.2 | CC(C)=CCC/C(C)=C/CCCCCCCC(P(=O)(O)O)P(=O)(O)O | ED50 [1]: 0.05 mg/kg; ED50 [4]: inactive
35.5 | CC(C)=CCC/C(C)=C/CC(P(=O)(O)O)P(=O)(O)O | ED50 [5]: inactive
81 | CC(C)=CCC/C(C)=C/CCCC(P(C)(=O)O)P(=O)(O)O (configuration not stated) | –
8.7 | CC(C)=CCC/C(C)=C/CCCCCCCC(P(C)(=O)O)P(=O)(O)O (configuration not stated) | –
23.9 | O=P(O)(O)C(CCCc1ccc(-c2ccccc2)cc1)P(=O)(O)CO (configuration not stated) | –
